# Source: ChEMBL document CHEMBL3526121, “Pharmacokinetics, bioavailability, tissue distribution, excretion, and metabolite identification of methoxyflavones in Kaempferia parviflora extract in rats” (Drug Metab Dispos, 2012)
# Key:
# [1] = Drug excretion in Wistar rat urine at 750 mg/kg, po after 12 hrs by HPLC-UV analysis; type: ADME, organism-based; parameters: dose 750 mg/kg, route oral; conditions: in vivo
# [2] = Drug excretion in Wistar rat feces at 750 mg/kg, po after 12 hrs by HPLC-UV analysis; type: ADME, organism-based; parameters: dose 750 mg/kg, route oral; conditions: in vivo
# [3] = Drug metabolism in Wistar rat assessed as excretion of 2-(3-hydroxy-4-methoxyphenyl)-3,5,7-trimethoxy-4H-chromen-4-one in urine at 750 mg/kg, po by LC-MS and LC-MS/MS analysis; type: ADME, organism-based; parameters: dose 750 mg/kg, route oral; conditions: in vivo
# [4] = Drug excretion in Wistar rat urine at 750 mg/kg, po after 24 to 72 hrs by HPLC-UV analysis; type: ADME, organism-based; parameters: dose 750 mg/kg, route oral; conditions: in vivo
# [5] = Drug excretion in Wistar rat feces at 750 mg/kg, po after 18 to 24 hrs by HPLC-UV analysis; type: ADME, organism-based; parameters: dose 750 mg/kg, route oral; conditions: in vivo
# [6] = Drug metabolism in Wistar rat assessed as excretion of 5-hydroxy-2-(3-hydroxy-4-methoxyphenyl)-3,7-dimethoxy-4H-chromen-4-one in urine/feces at 750 mg/kg, po by LC-MS and LC-MS/MS analysis; type: ADME, organism-based; parameters: dose 750 mg/kg, route oral; conditions: in vivo
# [7] = AUC in Wistar rat at 250 mg/kg, po by HPLC analysis; type: ADME, organism-based; parameters: dose 250 mg/kg, route oral; conditions: plasma
# [8] = AUC in Wistar rat at 250 mg/kg, iv by HPLC analysis; type: ADME, organism-based; parameters: dose 250 mg/kg, route intravenous; conditions: plasma
# [9] = Half life in Wistar rat at 250 mg/kg, po by HPLC analysis; type: ADME, organism-based; parameters: dose 250 mg/kg, route oral; conditions: in vivo
# Rattus norvegicus [10] = experiment: Half life in Wistar rat at 250 mg/kg, iv by HPLC analysis; type: ADME, organism-based; parameters: dose 250 mg/kg, route intravenous; conditions: in vivo
# [11] = Elimination rate constant in Wistar rat at 250 mg/kg, po by HPLC analysis; type: ADME, organism-based; parameters: dose 250 mg/kg, route oral; conditions: in vivo, read-out: Ke (converted)
# Rattus norvegicus [12] = experiment: Elimination rate constant in Wistar rat at 250 mg/kg, iv by HPLC analysis; type: ADME, organism-based; parameters: dose 250 mg/kg, route intravenous; conditions: in vivo
# [13] = Clearance in Wistar rat at 250 mg/kg, po by HPLC analysis; type: ADME, organism-based; parameters: dose 250 mg/kg, route oral; conditions: in vivo
# [14] = Clearance in Wistar rat at 250 mg/kg, iv by HPLC analysis; type: ADME, organism-based; parameters: dose 250 mg/kg, route intravenous; conditions: in vivo
# [15] = Tmax in Wistar rat at 250 mg/kg, po by HPLC analysis; type: ADME, organism-based; parameters: dose 250 mg/kg, route oral; conditions: in vivo
# [16] = Cmax in Wistar rat at 250 mg/kg, po by HPLC analysis; type: ADME, organism-based; parameters: dose 250 mg/kg, route oral; conditions: in vivo
# Rattus norvegicus [17] = experiment: Volume of distribution in Wistar rat at 250 mg/kg, po by HPLC analysis; type: ADME, organism-based; parameters: dose 250 mg/kg, route oral; conditions: in vivo
# Rattus norvegicus [18] = experiment: Absorption rate constant in Wistar rat at 250 mg/kg, po by HPLC analysis; type: ADME, organism-based; parameters: dose 250 mg/kg, route oral; conditions: in vivo
# [19] = Oral bioavailability in Wistar rat at 250 mg/kg by HPLC analysis; type: ADME, organism-based; conditions: in vivo
# Liver = experiment: AUC (0.083 to 4 hrs) in Wistar rat liver at 750 mg/kg, po by LC-MS/MS analysis; type: ADME, organism-based; parameters: time 0.083-4 hr, dose 750 mg/kg, route oral; conditions: in vivo
# Kidney = experiment: AUC (0.083 to 4 hrs) in Wistar rat kidney at 750 mg/kg, po by LC-MS/MS analysis; type: ADME, organism-based; parameters: time 0.083-4 hr, dose 750 mg/kg, route oral; conditions: in vivo
# Lung = experiment: AUC (0.083 to 4 hrs) in Wistar rat lung at 750 mg/kg, po by LC-MS/MS analysis; type: ADME, organism-based; parameters: time upper 4 hr, time lower 0.083 hr, dose 750 mg/kg, route oral; conditions: in vivo
# Brain = experiment: AUC (0.083 to 4 hrs) in Wistar rat brain at 750 mg/kg, po by LC-MS/MS analysis; type: ADME, organism-based; parameters: time 0.083-4 hr, dose 750 mg/kg, route oral; conditions: in vivo
# [20] = Cmax in Wistar rat liver at 750 mg/kg, po by LC-MS/MS analysis; type: ADME, organism-based; parameters: dose 750 mg/kg, route oral
# [21] = Cmax in Wistar rat kidney at 750 mg/kg, po by LC-MS/MS analysis; type: ADME, organism-based; parameters: dose 750 mg/kg, route oral
# [22] = Cmax in Wistar rat lung at 750 mg/kg, po by LC-MS/MS analysis; type: ADME, organism-based; parameters: dose 750 mg/kg, route oral
# [23] = Cmax in Wistar rat brain at 750 mg/kg, po by LC-MS/MS analysis; type: ADME, organism-based; parameters: dose 750 mg/kg, route oral
# [24] = Cmax in Wistar rat testes at 750 mg/kg, po by LC-MS/MS analysis; type: ADME, organism-based, Testis; parameters: dose 750 mg/kg, route oral
# [25] = Tmax in Wistar rat liver at 750 mg/kg, po by LC-MS/MS analysis; type: ADME, organism-based; parameters: dose 750 mg/kg, route oral
# [26] = Tmax in Wistar rat kidney at 750 mg/kg, po by LC-MS/MS analysis; type: ADME, organism-based; parameters: dose 750 mg/kg, route oral
# [27] = Tmax in Wistar rat lung at 750 mg/kg, po by LC-MS/MS analysis; type: ADME, organism-based; parameters: dose 750 mg/kg, route oral
# [28] = Tmax in Wistar rat brain at 750 mg/kg, po by LC-MS/MS analysis; type: ADME, organism-based; parameters: dose 750 mg/kg, route oral
# [29] = Tmax in Wistar rat testes at 750 mg/kg, po by LC-MS/MS analysis; type: ADME, organism-based, Testis; parameters: dose 750 mg/kg, route oral
# [30] = Drug metabolism in Wistar rat assessed as excretion of 3,5-dihydroxy-2-(3-hydroxy-4-methoxyphenyl)-7-methoxy-4H-chromen-4-one in feces at 750 mg/kg, po by LC-MS and LC-MS/MS analysis; type: ADME, organism-based; parameters: dose 750 mg/kg, route oral; conditions: in vivo
# [31] = Drug excretion in Wistar rat urine at 750 mg/kg, po after up to 72 hrs by HPLC-UV analysis; type: ADME, organism-based; parameters: dose 750 mg/kg, route oral; conditions: read-out: Drug excretion
# [32] = Drug excretion in Wistar rat feces at 750 mg/kg, po after up to 72 hrs by HPLC-UV analysis; type: ADME, organism-based; parameters: dose 750 mg/kg, route oral; conditions: faeces, read-out: Drug excretion
# [33] = AUC (0.083 to 4 hrs) in Wistar rat testes at 750 mg/kg, po by LC-MS/MS analysis; type: ADME, organism-based, Testis; parameters: time 0.083-4 hr, dose 750 mg/kg, route oral; conditions: in vivo
# [34] = Drug metabolism in Wistar rat urine/feces treated with 750 mg/kg, po of 5,7,4'-trimethoxyflavone by LC-MS and LC-MS/MS analysis; type: ADME, organism-based; parameters: dose 750 mg/kg, route oral; conditions: in vivo
# [35] = Drug metabolism in Wistar rat urine/feces treated with 750 mg/kg, po of 5,7-dimethoxyflavone by LC-MS and LC-MS/MS analysis; type: ADME, organism-based; parameters: dose 750 mg/kg, route oral; conditions: in vivo
# [36] = Drug metabolism in Wistar rat urine/feces treated with 750 mg/kg, po of 3,5,7,4'-tetramethoxyflavone by LC-MS and LC-MS/MS analysis; type: ADME, organism-based; parameters: dose 750 mg/kg, route oral; conditions: in vivo
# [37] = Drug metabolism in Wistar rat urine/feces treated with 750 mg/kg, po of 3,5,7,3',4'-pentamethoxyflavone by LC-MS and LC-MS/MS analysis; type: ADME, organism-based; parameters: dose 750 mg/kg, route oral; conditions: in vivo
smiles,measurement,setting,value
COc1cc(O)c2c(=O)c(OC)c(-c3ccccc3)oc2c1,Drug excretion,[1],Active
same,Drug excretion,[2],Active
COc1cc(OC)c2c(=O)c(OC)c(-c3ccc(OC)c(OC)c3)oc2c1,Drug metabolism,[3],metabolite_detected
same,Drug excretion,[4],Active
same,Drug excretion,[5],Active
same,Drug metabolism,[6],metabolite_detected
same,AUC,[7],3650 ng·h/mL
same,AUC,[8],76800 ng·h/mL
same,half-life,[9],3.12 h
same,t1/2,Rattus norvegicus [10],2.36 h
same,k el,[11],7.78e-05 s⁻¹
same,Ke,Rattus norvegicus [12],0.61 h⁻¹
same,CL/F,[13],10.4 mL/min
same,clearance,[14],0.359 mL/min
same,Tmax,[15],1.71 h
same,Cmax,[16],550 ng/mL
same,Vd,Rattus norvegicus [17],2637.13 mL
same,ka,Rattus norvegicus [18],1.23 h⁻¹
same,bioavailability,[19],3.32%
same,AUC,Liver,9.07 µg·h/g
same,AUC,Kidney,2.03 µg·h/g
same,AUC,Lung,1.6 µg·h/g
same,AUC,Brain,0.76 µg·h/g
same,Cmax,[20],3100 ng/g
same,Cmax,[21],1000 ng/g
same,Cmax,[22],2230 ng/g
same,Cmax,[23],260 ng/g
same,Cmax,[24],500 ng/g
same,Tmax,[25],3.43 h
same,Tmax,[26],3.43 h
same,Tmax,[27],4.8 min
same,Tmax,[28],3.14 h
same,Tmax,[29],2.36 h
same,Drug excretion,[1],Active
same,Drug excretion,[2],Active
same,Drug metabolism,[30],metabolite_detected
same,dose excreted at 72 h,[31],1.06%
same,dose excreted at 72 h,[32],0.79%
same,AUC,[33],1.01 µg·h/g
COc1ccc(-c2cc(=O)c3c(O)cc(OS(=O)(=O)O)cc3o2)cc1,Drug metabolism,[34],metabolite_detected
COc1ccc(-c2cc(=O)c3c(OS(=O)(=O)O)cc(OC)cc3o2)cc1,Drug metabolism,[34],metabolite_detected
COc1cc(OS(=O)(=O)O)c2c(=O)cc(-c3ccccc3)oc2c1,Drug metabolism,[35],metabolite_detected
COc1ccc(-c2oc3cc(OC)cc(O)c3c(=O)c2O)cc1,Drug metabolism,[36],metabolite_detected
COc1cc(OC)c2c(=O)c(OC)c(-c3ccc(OC)c(O)c3)oc2c1,Drug metabolism,[37],metabolite_detected
COc1ccc(-c2oc3cc(OC)cc(O)c3c(=O)c2OC)cc1,Drug excretion,[1],Active
same,Drug excretion,[2],Active
COc1cc(O)c2c(=O)c(OC)c(-c3ccc(OC)c(O)c3)oc2c1 [AYANIN],Drug metabolism,[37],metabolite_detected
